Results as given in patent US9963452B2, “Methods, compounds, and compositions for inhibition of ROS” (AUGUSTA PHARMACEUTICALS INC., priority 2013, dated 2018).
Like-named read-outs stand apart in the source and are kept apart here.

Legend:
ROS [1] = target: T1, ROS (Homo sapiens, UniProt P08922); assay: In vitro ROS enzymatic reaction assay (HTRF, Cisbio); format: biochemical; design: ROS or EGFR enzyme, 0.008 ng/ul; conditions: for inhibition at 5 µM: ROS kinase, compound at 5 uM, read-out: Kinase Inhib. 5 uM (%)
T1 sequence (P08922 28-2347): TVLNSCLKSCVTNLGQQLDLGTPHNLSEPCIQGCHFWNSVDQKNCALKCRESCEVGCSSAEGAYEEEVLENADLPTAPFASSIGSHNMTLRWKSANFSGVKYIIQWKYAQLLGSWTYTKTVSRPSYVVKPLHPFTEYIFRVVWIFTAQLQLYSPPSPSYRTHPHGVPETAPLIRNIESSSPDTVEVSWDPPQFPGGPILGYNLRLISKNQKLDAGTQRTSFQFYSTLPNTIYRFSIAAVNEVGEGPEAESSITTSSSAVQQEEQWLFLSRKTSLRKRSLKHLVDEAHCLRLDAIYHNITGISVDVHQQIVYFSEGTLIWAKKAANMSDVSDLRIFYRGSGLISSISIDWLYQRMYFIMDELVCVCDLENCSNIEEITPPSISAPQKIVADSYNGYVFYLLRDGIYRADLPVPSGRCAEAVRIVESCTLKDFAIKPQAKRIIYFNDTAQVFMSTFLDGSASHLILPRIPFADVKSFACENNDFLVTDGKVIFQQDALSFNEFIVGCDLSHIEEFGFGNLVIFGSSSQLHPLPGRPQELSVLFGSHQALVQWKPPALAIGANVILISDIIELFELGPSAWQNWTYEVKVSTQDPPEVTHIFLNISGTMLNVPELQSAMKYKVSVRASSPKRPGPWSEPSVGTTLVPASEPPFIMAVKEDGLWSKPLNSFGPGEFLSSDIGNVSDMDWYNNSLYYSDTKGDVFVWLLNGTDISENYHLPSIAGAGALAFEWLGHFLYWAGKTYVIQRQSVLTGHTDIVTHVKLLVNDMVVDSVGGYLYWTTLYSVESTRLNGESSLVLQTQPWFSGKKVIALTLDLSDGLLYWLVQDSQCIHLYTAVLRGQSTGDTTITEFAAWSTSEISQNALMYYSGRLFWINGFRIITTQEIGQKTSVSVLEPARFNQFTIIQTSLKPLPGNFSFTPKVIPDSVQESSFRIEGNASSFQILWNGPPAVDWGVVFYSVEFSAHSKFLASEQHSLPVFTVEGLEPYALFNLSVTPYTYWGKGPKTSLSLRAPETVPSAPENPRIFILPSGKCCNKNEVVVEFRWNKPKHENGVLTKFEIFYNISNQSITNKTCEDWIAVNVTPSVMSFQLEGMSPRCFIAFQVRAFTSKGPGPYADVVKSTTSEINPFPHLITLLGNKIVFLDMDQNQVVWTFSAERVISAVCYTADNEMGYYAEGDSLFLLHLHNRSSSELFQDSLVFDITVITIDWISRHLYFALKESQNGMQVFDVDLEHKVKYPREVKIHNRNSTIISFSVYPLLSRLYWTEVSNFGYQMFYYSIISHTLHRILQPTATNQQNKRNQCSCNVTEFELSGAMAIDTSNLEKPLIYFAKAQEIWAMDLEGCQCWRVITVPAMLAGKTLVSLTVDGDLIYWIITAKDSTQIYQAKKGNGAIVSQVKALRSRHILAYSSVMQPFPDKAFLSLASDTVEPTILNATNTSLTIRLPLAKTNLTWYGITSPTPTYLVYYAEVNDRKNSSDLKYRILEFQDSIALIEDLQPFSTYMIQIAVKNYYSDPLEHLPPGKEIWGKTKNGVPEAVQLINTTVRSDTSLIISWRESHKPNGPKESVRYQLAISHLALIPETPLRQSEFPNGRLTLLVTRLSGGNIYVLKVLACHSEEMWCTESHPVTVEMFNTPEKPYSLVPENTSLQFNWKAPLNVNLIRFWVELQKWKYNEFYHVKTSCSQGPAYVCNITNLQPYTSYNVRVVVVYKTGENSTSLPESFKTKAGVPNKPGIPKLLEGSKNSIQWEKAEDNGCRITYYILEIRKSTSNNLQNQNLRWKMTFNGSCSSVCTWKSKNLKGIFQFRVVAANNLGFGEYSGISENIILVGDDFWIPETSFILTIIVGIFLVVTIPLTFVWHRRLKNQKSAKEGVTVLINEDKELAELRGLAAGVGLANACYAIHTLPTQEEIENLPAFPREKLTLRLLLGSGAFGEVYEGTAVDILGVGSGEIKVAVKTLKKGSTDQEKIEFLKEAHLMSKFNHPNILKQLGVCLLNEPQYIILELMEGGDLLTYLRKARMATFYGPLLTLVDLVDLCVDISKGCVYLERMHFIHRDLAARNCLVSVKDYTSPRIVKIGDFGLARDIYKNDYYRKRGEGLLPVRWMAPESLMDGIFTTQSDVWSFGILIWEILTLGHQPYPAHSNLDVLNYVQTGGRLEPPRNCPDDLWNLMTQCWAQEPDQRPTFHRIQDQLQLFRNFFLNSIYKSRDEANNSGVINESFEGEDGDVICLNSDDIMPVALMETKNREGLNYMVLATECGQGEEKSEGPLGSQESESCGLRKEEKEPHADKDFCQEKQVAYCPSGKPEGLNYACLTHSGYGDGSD
Protocol: The ROS enzymatic reactions were carried out with a high throughput screening platform for phosphor-detection of kinase activity. This platform based on homogeneous time resolved fluorescence (HTRF) technology from Cisbio Bioassays, Inc. (Cisbio). […] The reaction was allowed to proceed for 30 minutes at room temperature. An equal volume of detection buffer was then added to the reaction mix.

EGFR = target: T2, EGFR (Homo sapiens, UniProt P00533); assay: In vitro EGFR enzymatic reaction assay (HTRF, Cisbio); format: biochemical
T2 construct: ROS or EGFR enzyme, 0.008 ng/ul
T2 sequence (P00533 25-1210, species assumed): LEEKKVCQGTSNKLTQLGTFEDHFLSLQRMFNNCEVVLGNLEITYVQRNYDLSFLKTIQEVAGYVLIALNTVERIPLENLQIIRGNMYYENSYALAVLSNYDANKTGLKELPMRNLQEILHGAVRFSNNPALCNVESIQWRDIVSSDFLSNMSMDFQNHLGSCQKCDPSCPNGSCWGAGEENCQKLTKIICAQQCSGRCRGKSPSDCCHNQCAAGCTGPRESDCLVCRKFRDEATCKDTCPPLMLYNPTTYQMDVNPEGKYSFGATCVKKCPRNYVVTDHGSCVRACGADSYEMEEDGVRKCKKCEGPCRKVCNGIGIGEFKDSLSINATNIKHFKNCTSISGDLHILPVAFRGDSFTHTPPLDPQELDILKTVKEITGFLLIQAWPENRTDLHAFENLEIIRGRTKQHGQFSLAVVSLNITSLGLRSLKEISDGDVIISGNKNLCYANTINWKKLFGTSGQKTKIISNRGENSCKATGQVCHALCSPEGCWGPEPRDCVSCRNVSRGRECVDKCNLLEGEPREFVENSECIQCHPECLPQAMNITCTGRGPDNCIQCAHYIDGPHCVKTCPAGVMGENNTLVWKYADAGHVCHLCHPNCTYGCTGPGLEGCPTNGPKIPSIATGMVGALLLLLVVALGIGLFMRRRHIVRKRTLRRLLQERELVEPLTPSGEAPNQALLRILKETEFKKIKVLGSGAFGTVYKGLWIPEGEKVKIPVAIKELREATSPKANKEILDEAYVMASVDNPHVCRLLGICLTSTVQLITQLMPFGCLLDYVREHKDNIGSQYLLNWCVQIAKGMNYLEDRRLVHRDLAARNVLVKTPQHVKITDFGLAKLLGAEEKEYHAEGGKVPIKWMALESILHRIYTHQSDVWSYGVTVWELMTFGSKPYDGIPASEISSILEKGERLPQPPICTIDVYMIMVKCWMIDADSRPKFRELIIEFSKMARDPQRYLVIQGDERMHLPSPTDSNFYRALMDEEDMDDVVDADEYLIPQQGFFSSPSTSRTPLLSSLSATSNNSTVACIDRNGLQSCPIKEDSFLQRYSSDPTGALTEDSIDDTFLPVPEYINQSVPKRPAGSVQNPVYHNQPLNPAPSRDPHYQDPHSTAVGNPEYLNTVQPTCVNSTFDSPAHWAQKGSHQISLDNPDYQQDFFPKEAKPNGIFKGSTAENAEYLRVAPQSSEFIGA

glioblastoma cell lines = assay: Glioblastoma growth inhibition by Xalkori (cell-based assay, FIG. 3); conditions: depending on the cell line (FIG. 3)
Protocol: Five tumor-derived cell lines were treated with the ROS inhibitor compounds and cell survival was monitored to determine the cancer prohibition effects of the compounds. The cell lines included HeLa, a cervical cancer cell line, and four glioblastoma cell lines U138, U87, LN18, and U118. The basic protocol for the in-vitro cell survival assay is the same for all five cell lines. In particular, the cells were seeded in 96-well plates at 2-5×10^3 cells/well (cell line dependent) in culture medium. The cells were grown for 2 days before the compounds were dissolved in DMSO and added to final concentrations of 100 uM, 10 uM, or 1 uM (DMSO final concentration 0.5%). The cell culture was then assayed one day after the addition of the compounds. The assay used Alamar blue as a redox-sensitive dye that interrogates mitochondrial fitness of cells, and these assays provided a readout for cell proliferation and viability. The raw values were normalized to an average of several vehicle control wells and are presented as percent decrease in proliferation/viability, which is converted to half maximal effective concentration (EC50) values.
FIG. 3: Potency, selectivity and growth inhibitory effects of Xalkori in in vitro kinase and cell-based assays. […] U138 and U118 have been documented to express aberrant ROS (FIG-ROS fusion). […]

ROS [2] = target: T1, ROS; conditions: reported in background; cited from earlier work
[3] = test system: U118 glioblastoma cell line; assay: In-vitro cell survival assay (Alamar blue), U118; format: cell-based; conditions: 24 h; U118, one day after compound addition
In short: (§1)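 Cells seeded at 2-5×10^3 per well, grown 2 days, then exposed to compound at 100, 10 or 1 uM (0.5% DMSO final) for one day. Alamar blue redox dye read as proliferation/viability, normalized to vehicle wells as percent decrease and converted to EC50.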

[4] = test system: U87 glioblastoma cell line; assay: In-vitro cell survival assay (Alamar blue), U87; format: cell-based; conditions: 24 h; U87, one day after compound addition
In short: as §1

[5] = test system: U138 glioblastoma cell line; assay: In-vitro cell survival assay (Alamar blue), U138; format: cell-based; conditions: 24 h; U138, one day after compound addition
In short: as §1

[6] = test system: LN18 glioblastoma cell line; assay: In-vitro cell survival assay (Alamar blue), LN18; format: cell-based; conditions: Homo sapiens, LN-18, 24 h; LN18, one day after compound addition
In short: as §1

[7] = test system: HeLa cervical cancer cell line; assay: In-vitro cell survival assay (Alamar blue), HeLa; format: cell-based; conditions: Homo sapiens, 24 h, one day after compound addition
In short: as §1

| Structure (SMILES) | IC50 (ROS [1]) [nM] | inhibition at 5 µM (ROS [1]) [%] | IC50 (EGFR) [nM] | further results |
| --- | --- | --- | --- | --- |
| Clc1nccc(Nc2cc(C3CC3)[nH]n2)n1 [drawing 298] | 2100 | 38.4 | > 50000 |  |
| CN1CCN(C(=O)c2ccc(Nc3ncc(Cl)c(Nc4ccc5ncsc5c4)n3)cc2)CC1 [drawing 307] | 405 | 92.2 | > 5000 |  |
| O=C(c1ccc(Nc2ncc(Cl)c(Nc3ccc4ncsc4c3)n2)cc1)N1CCCCC1 [drawing 306] | 70 | 87.9 | > 5000 |  |
| O=C(c1cccc(Nc2ncc(Cl)c(Nc3ccc4ncsc4c3)n2)c1)N1CCCCC1 [drawing 328] | 240 | 100 | > 5000 |  |
| NC1CCN(C(=O)c2ccc(Nc3ncc(Cl)c(Nc4ccc5ncsc5c4)n3)cc2)CC1 [drawing 327] | 444 | 100 | > 5000 |  |
| CN1CCN(C(=O)c2cccc(Nc3ncc(Cl)c(Nc4ccc5ncsc5c4)n3)c2)CC1 [drawing 329] | 330 | 100 | > 5000 |  |
| COc1ccc(C2=CCNCC2)cc1Nc1nccc(Nc2ccc3ncsc3c2)n1 [drawing 330] | 3 | 100 | 802 |  |
| NCC1CCN(C(=O)c2ccc(Nc3ncc(Cl)c(Nc4ccc5ncsc5c4)n3)cc2)CC1 [drawing 326] | 368 | 100 | > 5000 |  |
| Nc1ccc(Nc2nccc(Nc3cc(C4CC4)[nH]n3)n2)cc1 [drawing 299] | 45 | 100 | 18900 |  |
| c1cc(Nc2nccc(Nc3ccc4ncsc4c3)n2)cc(C2CCNCC2)c1 [drawing 303] | 42 | 100 | 4600 |  |
| O=C(NCC1CCNCC1)c1ccc(Nc2ncc(Cl)c(Nc3ccc4ncsc4c3)n2)cc1 [drawing 331] | 1010 | 100 | > 5000 |  |
| O=C(O)c1ccc(Nc2ncc(Cl)c(Nc3ccc4ncsc4c3)n2)cc1 [drawing 308] | 37 | 101 | 2400 |  |
| Brc1cccc(Nc2nccc(Nc3ccc4ncsc4c3)n2)c1 [drawing 305] | 17 | 90 | > 5000 |  |
| C[C@@H](Oc1cc(-c2cnn(C3CCNCC3)c2)cnc1N)c1c(Cl)ccc(F)c1Cl [Crizotinib] |  |  |  | EC50 (glioblastoma cell lines): 12 to 20 nM |
| NCC1CCN(C(=O)c2cccc(Nc3ncc(Cl)c(Nc4ccc5ncsc5c4)n3)c2)CC1 [drawing 333] | 110 | 100 | > 5000 |  |
| NC1CCN(C(=O)c2cccc(Nc3ncc(Cl)c(Nc4ccc5ncsc5c4)n3)c2)CC1 [drawing 332] | 165 | 100 | > 5000 |  |
| O=C(O)c1cccc(Nc2ncc(Cl)c(Nc3ccc4ncsc4c3)n2)c1 [drawing 325] | 189 | 100 | > 5000 |  |
| C1=C(c2cccc(Nc3nccc(Nc4ccc5ncsc5c4)n3)c2)CCNC1 [drawing 304] | 41 | 101 | > 5000 |  |
| Cc1cc(O)cc(-c2nn(CC#N)cc2-c2ccnc(-c3cccnc3)c2)c1 [KIST301080] |  |  |  | IC50 (ROS [2]): 209 nM |
| CC(C)(C)OC(=O)NC1CCN(C(=O)c2ccc(Nc3ncc(Cl)c(Nc4ccc5ncsc5c4)n3)cc2)CC1 [drawing 309] | > 5000 | 29.4 | > 5000 |  |
| c1cc(Nc2cc(C3CC3)[nH]n2)nc(Nc2ccc(NCc3cc(C4OCCO4)c(C4OCCO4)s3)cc2)n1 [drawing 300] | 1140 | 79.3 | > 50000 |  |
| O=C(NCC1CCNCC1)c1cccc(Nc2ncc(Cl)c(Nc3ccc4ncsc4c3)n2)c1 [drawing 334] | 380 | 100 | > 5000 |  |
| Nc1cccc(C2CCN(c3nccc(Nc4ccc5ncsc5c4)n3)CC2)c1 [drawing 302] | 48 | 101 | 4700 |  |
| NC(=O)c1c(NC(=O)Nc2ccccc2)sc2c1CCCC2 [drawing 401] |  |  |  | EC50 [3]: 34000 nM; EC50 [4]: 80000 nM; EC50 [5]: 27000 nM; EC50 [6]: 38000 nM; EC50 [7]: 16000 nM |
